From patent publication US12569536B2, “Macrocyclic peptides for targeted inhibition of autophagy” (Board of Regents, The University of Texas System, priority 2019, dated 2026)
Bridge positions count the residues as written; N and C are the ends. Square brackets hold non-standard residues; d marks the D form. Primed or numbered codes have the meaning given here. Ends that are not written are not given here. DSG″ = disuccinimidyl glutarate, a bis-NHS cross-linker that leaves a glutaryl bridge between two amines; NMeA = CN[C@@H](C)C(=O)O

Tested on: HeLa cells stably transfected with a GFP-LC3 fusion
Type: cell-based
Conditions: HeLa starved in Hank's Balanced Salt Solution
Excerpt: FIG. 11: Confocal microscopy of SUPR 4B1W-Rox in autophagic HeLa cells. A line of HeLa cells was stably transfected with a GFP-LC3 fusion. When starved for 2+ hours in Hank's Balanced Salt Solution, these cells become autophagic and GFP signal becomes punctate as GFP-LC3 fusions are embedded in the autophagosome.

With “SUPR 4B1W-ROX: SUPR 4B1W conjugated to the fluorophore ROX (MWPHRVTA[NMeA]K; bridge N-10 via DSG″; also: conjugated to fluorophore ROX, site not given here)” the “co-localization with GFP-LC3” value was “Significant co-localization of ROX and GFP signal”.
